Results published in patent US4272437A, “Antibacterial agents, and 4-thio azetidinone intermediates” (priority 1979, dated 1981).
Values after ≈ are worked out from the molar mass of the structure shown. Where a name gives a salt, the structure may show the parent alone. Read-outs that look alike come from different tables or passages of the source.

Key:
Pr. mirabilis A-9900 = assay: MIC, tube dilution, Proteus mirabilis A9900; type: cell-based; settings: Proteus mirabilis, A9900, Proteus mirabilis A9900; overnight 37° C.; read-out: Minimum Inhibitory Concentration (M.I.C.)
Excerpt: (§1) Representative compounds of the present invention were subjected to in vitro antibiotic screening against a variety of microorganisms.

E. coli A-15119 = assay: MIC, tube dilution, Escherichia coli A15119; type: cell-based; settings: Escherichia coli, A15119, E. coli A15119; overnight 37° C.; read-out: Minimum Inhibitory Concentration (M.I.C.)
Excerpt: as §1

Ps. aeruginosa A-21213 = assay: MIC, tube dilution, Pseudomonas aeruginosa A21213; type: cell-based; settings: overnight 37° C., read-out: Minimum Inhibitory Concentration (M.I.C.)
Excerpt: as §1

Ps. aeruginosa A-9843A = assay: MIC, tube dilution, Pseudomonas aeruginosa A9843A; type: cell-based; settings: Pseudomonas aeruginosa, A9843A, read-out: Minimum Inhibitory Concentration (M.I.C.), Pseudomonas aeruginosa A9843A; overnight 37° C.
Excerpt: as §1

Proteus rettgeri A21203 = assay: MIC, tube dilution, Proteus rettgeri A21203; type: cell-based; settings: Providencia rettgeri, overnight 37° C., read-out: Minimum Inhibitory Concentration (M.I.C.)
Excerpt: as §1

[1] = system: Staph. aureus (Meth-Res) A-15097; assay: MIC, tube dilution, Staphylococcus aureus A15097 (Meth-Res); type: cell-based; settings: overnight 37° C.; for MIC: Staphylococcus aureus
Excerpt: as §1

Ent. cloacae A-9659 = assay: MIC, tube dilution, Enterobacter cloacae A9659; type: cell-based; settings: Enterobacter cloacae, A9659, Enterobacter cloacae A9659; overnight 37° C.; read-out: Minimum Inhibitory Concentration (M.I.C.)
Excerpt: as §1

[2] = system: Staph. aureus (Pen-Res) A-9606; assay: MIC, tube dilution, Staphylococcus aureus A9606 (Pen-Res); type: cell-based; settings: Staphylococcus aureus, overnight 37° C.
Excerpt: as §1

[3] = system: Staph. aureus A-9537 and 50% serum; assay: MIC, tube dilution, Staph. aureus A9537 + 50% serum; type: cell-based, Staphylococcus aureus; settings: Staphylococcus aureus, overnight 37° C., read-out: Minimum Inhibitory Concentration (M.I.C.)
Excerpt: as §1

Ent. cloacae A-9656 = assay: MIC, tube dilution, Enterobacter cloacae A9656; type: cell-based; settings: overnight 37° C., read-out: Minimum Inhibitory Concentration (M.I.C.)
Excerpt: as §1

Str. pneumoniae A-9585 = assay: MIC, tube dilution, Streptococcus pneumoniae A9585; type: cell-based; settings: Streptococcus pneumoniae, A9585, Str. pneumoniae A9585; overnight 37° C., Nutrient Broth; read-out: Minimum Inhibitory Concentration (M.I.C.)
Excerpt: as §1

Proteus vulgaris A21559 = assay: MIC, tube dilution, Proteus vulgaris A21559; type: cell-based; settings: Proteus vulgaris
Excerpt: as §1

E. coli A-20341-1 = assay: MIC, tube dilution, Escherichia coli A20341-1; type: cell-based
Excerpt: as §1

Str. faecalis A-20688 = assay: MIC, tube dilution, Streptococcus faecalis A20688; type: cell-based; settings: Enterococcus faecalis, A20688, Str. faecalis A20688; overnight 37° C.; read-out: Minimum Inhibitory Concentration (M.I.C.)
Excerpt: as §1

[4] = system: Klebsiella species A20468; assay: MIC, tube dilution, Klebsiella species A20468; type: cell-based; settings: Klebsiella species (K. pneumoniae) A20468; overnight 37° C.; read-out: Minimum Inhibitory Concentration (M.I.C.)
Excerpt: as §1

Staph. aureus A-9537 = assay: MIC, tube dilution, Staphylococcus aureus A9537; type: cell-based; settings: overnight 37° C., Nutrient Broth; for MIC: Staphylococcus aureus, A9537, Staph. aureus A9537, read-out: Minimum Inhibitory Concentration (M.I.C.)
Excerpt: as §1

Ser. marcescens A-20019 = assay: MIC, tube dilution, Serratia marcescens A20019; type: cell-based; settings: Serratia marcescens, A20019, Serratia marcescens A20019; overnight 37° C.; read-out: Minimum Inhibitory Concentration (M.I.C.)
Excerpt: as §1

Pr. morganii A-15153 = assay: MIC, tube dilution, Proteus morganii A15153; type: cell-based; settings: Morganella morganii, A15153, Proteus morganii A15153; overnight 37° C.; read-out: Minimum Inhibitory Concentration (M.I.C.)
Excerpt: as §1

K. pneumoniae A-15130 = assay: MIC, tube dilution, Klebsiella pneumoniae A15130; type: cell-based; settings: Klebsiella pneumoniae, A15130, K. pneumoniae A15130; overnight 37° C.; read-out: Minimum Inhibitory Concentration (M.I.C.)
Excerpt: as §1

Str. pyogenes A-9604 = assay: MIC, tube dilution, Streptococcus pyogenes A9604; type: cell-based; settings: overnight 37° C., Nutrient Broth; for MIC: Streptococcus pyogenes, A9604, Str. pyogenes A9604, read-out: Minimum Inhibitory Concentration (M.I.C.)
Excerpt: as §1

[5] = Pseudomonas aeruginosa, A21213, Pseudomonas aeruginosa A21213
[6] = A21203, Proteus rettgeri A21203
[7] = Staph. aureus A15097 (Meth-Res), read-out: Minimum Inhibitory Concentration (M.I.C.)
[8] = Staph. aureus A9606 (Pen-Res), read-out: Minimum Inhibitory Concentration (M.I.C.)
[9] = Enterobacter cloacae, A9656, Enterobacter cloacae A9656
[10] = A21559, Proteus vulgaris A21559, overnight 37° C., read-out: Minimum Inhibitory Concentration (M.I.C.)
[11] = Escherichia coli, A203411, E. coli A20341-1; overnight 37° C.; read-out: Minimum Inhibitory Concentration (M.I.C.)

Row | Structure (SMILES) | MIC (Pr. mirabilis A-9900) | MIC (E. coli A-15119) | MIC (Ps. aeruginosa A-9843A) | MIC (Ent. cloacae A-9659) | MIC [3] | MIC (Str. pneumoniae A-9585) | MIC (Str. faecalis A-20688) | MIC [4] | MIC (Staph. aureus A-9537) | MIC (Ser. marcescens A-20019) | MIC (Pr. morganii A-15153) | MIC (K. pneumoniae A-15130) | MIC (Str. pyogenes A-9604) | MIC (Ps. aeruginosa A-21213; [5]) | MIC (Proteus rettgeri A21203; [6]) | MIC [1, 7] | MIC [2, 8] | MIC (Ent. cloacae A-9656; [9]) | MIC (Proteus vulgaris A21559; [10]) | MIC (E. coli A-20341-1; [11]) | further results
1 | CC1=C(C(=O)O)N2C(=O)[C@H]([C@H](C)O)[C@H]2S1 (relative stereo) [Example 59, (1'S,5R,6S and 1'R,5S,6R) 6-(1'-Hydroxy-1'-ethyl)-2-methyl penem-3-carboxylic acid (isomer C)] | > 125 µg/mL | > 125 µg/mL | > 125 µg/mL | > 125 µg/mL | > 63 µg/mL | 32 µg/mL (≈ 140 µM) | > 125 µg/mL | > 125 µg/mL | > 125 µg/mL | > 125 µg/mL | > 125 µg/mL | > 125 µg/mL | 125 µg/mL (≈ 545 µM) | – | – | – | – | – | – | – | MIC (Ps. aeruginosa A-21213; Pseudomonas aeruginosa A21213): > 125 µg/mL; MIC (Proteus rettgeri A21203; Proteus rettgeri A21203): > 125 µg/mL; MIC ([1]; read-out: Minimum Inhibitory Concentration (M.I.C.), Staph. aureus A15097 (Meth-Res)): > 125 µg/mL; MIC ([2]; read-out: Minimum Inhibitory Concentration (M.I.C.), Staph. aureus A9606 (Pen-Res)): > 125 µg/mL; MIC (Ent. cloacae A-9656; Enterobacter cloacae A9656): > 125 µg/mL; MIC (Proteus vulgaris A21559; A21559, read-out: Minimum Inhibitory Concentration (M.I.C.)): > 125 µg/mL; MIC (E. coli A-20341-1; Escherichia coli, A203411; E. coli A20341-1; overnight 37° C.; read-out: Minimum Inhibitory Concentration (M.I.C.)): > 125 µg/mL
2 | CC1=C(C(=O)O)N2C(=O)[C@@H]([C@@H](C)O)[C@H]2S1 (relative stereo) [Example 58, (1'R,5R,6R) and (1'S,5S,6S) 6-(1'-Hydroxy-1'-ethyl)-2-methylpenem-3-carboxylic Acid (isomer D)] | – | – | – | – | – | – | – | – | – | – | – | – | – | – | – | – | – | – | – | – | Minimum Inhibitory Concentration (M.I.C.) ([1]; Staph. aureus A15097 (Meth-Res)): 16 µg/mL; Minimum Inhibitory Concentration (M.I.C.) (Staph. aureus A-9537; Staph. aureus A9537): 4 µg/mL; Minimum Inhibitory Concentration (M.I.C.) (Str. pyogenes A-9604; Str. pyogenes A9604): 2 µg/mL
3 | NCC(=O)OCC1=C(C(=O)O)N2C(=O)CC2S1 (centres unmarked) [Example 81, 2-Aminoacetoxymethyl-penem-3-carboxylic Acid] | 4 µg/mL (≈ 15.5 µM) | 2 µg/mL (≈ 7.74 µM) | 63 µg/mL (≈ 244 µM) | 8 µg/mL (≈ 31 µM) | > 32 µg/mL | 2 µg/mL (≈ 7.74 µM) | 63 µg/mL (≈ 244 µM) | > 63 µg/mL | 32 µg/mL (≈ 124 µM) | 8 µg/mL (≈ 31 µM) | 8 µg/mL (≈ 31 µM) | 8 µg/mL (≈ 31 µM) | 16 µg/mL (≈ 62 µM) | > 63 µg/mL | 8 µg/mL (≈ 31 µM) | 8 µg/mL (≈ 31 µM) | 2 µg/mL (≈ 7.74 µM) | 8 µg/mL (≈ 31 µM) | 16 µg/mL (≈ 62 µM) | 32 µg/mL (≈ 124 µM) | –
4 | CC1=C(C(=O)O)N2C(=O)[C@H](CNC=O)[C@H]2S1 (relative stereo) [Example 92, 6-Formamidomethyl-2-methylpenem-3-carboxylic acid, sodium and potassium salts] | 32 µg/mL | 32 µg/mL | > 63 µg/mL | 63 µg/mL | 32 µg/mL | 0.5 µg/mL | > 63 µg/mL | 63 µg/mL | 8 µg/mL | 63 µg/mL | 63 µg/mL | 63 µg/mL | 0.5 µg/mL | > 63 µg/mL | 32 µg/mL | 32 µg/mL | 16 µg/mL | 63 µg/mL | 32 µg/mL | 32 µg/mL | –
5 | NCC[S+]([O-])CC1=C(C(=O)O)N2C(=O)C[C@H]2S1 (some centres unmarked) [Example 101, 2-(2-Aminoethylsulfinylmethyl) penem-3-carboxylic Acid] | 8 µg/mL (≈ 28.9 µM) | 8 µg/mL (≈ 28.9 µM) | 63 µg/mL (≈ 228 µM) | 32 µg/mL (≈ 116 µM) | 4 µg/mL | 0.5 µg/mL (≈ 1.81 µM) | > 63 µg/mL | > 63 µg/mL | 0.5 µg/mL (≈ 1.81 µM) | 32 µg/mL (≈ 116 µM) | 16 µg/mL (≈ 57.9 µM) | 32 µg/mL (≈ 116 µM) | 0.5 µg/mL (≈ 1.81 µM) | 63 µg/mL (≈ 228 µM) | 16 µg/mL (≈ 57.9 µM) | 63 µg/mL (≈ 228 µM) | 4 µg/mL (≈ 14.5 µM) | 63 µg/mL (≈ 228 µM) | 16 µg/mL (≈ 57.9 µM) | 32 µg/mL (≈ 116 µM) | –
